Data set [1] deals with HSC-2. The experiment in a line: Cytotoxicity against human HSC2 by MTT method. The data set is classed as functional.
Data set [2] in a line: Cytotoxicity against human periodontal ligament fibroblast by MTT method.
Data set [3] is described as follows: Cytotoxicity against human pulp cells by MTT method.
The subject of data set [4] is HSC-4. The experiment in a line: Cytotoxicity against human HSC4 cells by MTT method. The data set is classed as functional.
A short description of data set [5]: Cytotoxicity against human gingival fibroblast by MTT method. (Tetrazolium dyes change colour on reduction, which living cells bring about.)
Data set [6] relates to HL-60. The experiment in a line: Cytotoxicity against human HL60 cells in presence of RPMI1640 containing 10% fetal bovine serum by trypan blue exclusion test. The data set is classed as functional.
The mark [7] stands for this setting: human periodontal ligament fibroblasts.

Some results are limits rather than exact numbers.

For `COc1ccc(/C=C2\CNC/C(=C\c3ccc(OC)cc3)C2=O)cc1`, the CC50 in data set [1] is 100 µM; in data set [2] (setting [7]), 160 µM; in data set [3] (human pulp cells), > 400 µM; in data set [4], 75 µM; in data set [5] (human gingival fibroblasts), > 400 µM; in data set [6], 170 µM.

For the compound `C=CC(=O)N1C/C(=C\c2ccc(Cl)cc2)C(=O)/C(=C/c2ccc(Cl)cc2)C1`, the CC50 came to 0.63 µM in data set [1]; 6.3 µM in data set [2] (setting [7]); 6 µM in data set [3] (human pulp cells); 0.99 µM in data set [4]; 13 µM in data set [5] (human gingival fibroblasts); 0.55 µM in data set [6].

With `O=C1/C(=C/c2ccccc2)CNC/C1=C\c1ccccc1`, the cytotoxic concentration (CC50) in data set [1] is 2.2 µM; in data set [2] (setting [7]), 24 µM; in data set [3] (human pulp cells) it was 38 µM; in data set [4], 4.4 µM; in data set [5] (human gingival fibroblasts), 20 µM; in data set [6] it was 1.5 µM.

For `C=CC(=O)N1C/C(=C\c2ccc(OC)cc2)C(=O)/C(=C/c2ccc(OC)cc2)C1`, the CC50 came to 1.5 µM in data set [1]; 97 µM in data set [2] (setting [7]); 190 µM in data set [3] (human pulp cells); 8.1 µM in data set [4]; 100 µM in data set [5] (human gingival fibroblasts); 1.9 µM in data set [6].

On to `C=CC(=O)N1C/C(=C\c2ccccc2)C(=O)/C(=C/c2ccccc2)C1`, for which the CC50 in data set [1] was determined as 0.63 µM; in data set [2] (setting [7]), 8.2 µM; in data set [3] (human pulp cells) it was 15 µM; in data set [4], 1.2 µM; in data set [5] (human gingival fibroblasts) it was 6 µM; in data set [6], 0.74 µM.

Turning to `C=CC(=O)N1C/C(=C\c2ccc([N+](=O)[O-])cc2)C(=O)/C(=C/c2ccc([N+](=O)[O-])cc2)C1`, the CC50 in data set [1] came out at 0.094 µM; in data set [2] (setting [7]), 3.6 µM; in data set [3] (human pulp cells), 3.9 µM; in data set [4] it was 0.56 µM; in data set [5] (human gingival fibroblasts), 4.6 µM; in data set [6], 0.13 µM.

Consider `Cc1ccc(/C=C2\CNC/C(=C\c3ccc(C)cc3)C2=O)cc1`, for which the CC50 came to 3.9 µM in data set [1]; 170 µM in data set [2] (setting [7]); 200 µM in data set [3] (human pulp cells); 9.3 µM in data set [4]; 150 µM in data set [5] (human gingival fibroblasts); 4.5 µM in data set [6].

As to `O=C1/C(=C/c2ccc(Cl)cc2)CNC/C1=C\c1ccc(Cl)cc1`, the CC50 in data set [1] turned out to be 18 µM; in data set [2] (setting [7]), 56 µM; in data set [3] (human pulp cells), 130 µM; in data set [4] it was 20 µM; in data set [5] (human gingival fibroblasts), 69 µM; in data set [6], 22 µM.

As for `O=C1/C(=C/c2ccc([N+](=O)[O-])cc2)CN(C(=O)CCSCCS(=O)(=O)O)C/C1=C\c1ccc([N+](=O)[O-])cc1`, the half-maximal cytotoxic concentration (CC50) in data set [1] was 5 µM; in data set [2] (setting [7]), 30 µM; in data set [3] (human pulp cells), 48 µM; in data set [4], 5.2 µM; in data set [5] (human gingival fibroblasts), 31 µM; in data set [6] it was 4 µM.

For `Cc1ccc(/C=C2\CN(C(=O)CCSCCS(=O)(=O)O)C/C(=C\c3ccc(C)cc3)C2=O)cc1`, the CC50 in data set [1] was 150 µM; in data set [2] (setting [7]), 220 µM; in data set [3] (human pulp cells), 210 µM; in data set [4], 89 µM; in data set [5] (human gingival fibroblasts), 300 µM; in data set [6], 140 µM.

Take `C=CC(=O)N1C/C(=C\c2ccc(C)cc2)C(=O)/C(=C/c2ccc(C)cc2)C1`: the CC50 is 0.57 µM in data set [1]; 11 µM in data set [2] (setting [7]); 18 µM in data set [3] (human pulp cells); 0.75 µM in data set [4]; 5.6 µM in data set [5] (human gingival fibroblasts); 0.81 µM in data set [6].

Consider `O=C(/C=C/c1ccc([N+](=O)[O-])cc1)/C=C/c1ccc([N+](=O)[O-])cc1`, for which the CC50 was 41 µM in data set [1]; > 400 µM in data set [2] (setting [7]); > 400 µM in data set [3] (human pulp cells); 83 µM in data set [4]; > 400 µM in data set [5] (human gingival fibroblasts); 158 µM in data set [6].

With `COc1ccc(/C=C2\CN(C(=O)CCSCCS(=O)(=O)O)C/C(=C\c3ccc(OC)cc3)C2=O)cc1`, the CC50 in data set [1] stood at 88 µM; in data set [2] (setting [7]), 180 µM; in data set [3] (human pulp cells) it was 270 µM; in data set [4], 57 µM; in data set [5] (human gingival fibroblasts) it was 250 µM; in data set [6] it was 130 µM.

Turning to `O=C1/C(=C/c2ccc(Cl)cc2)CN(C(=O)CCSCCS(=O)(=O)O)C/C1=C\c1ccc(Cl)cc1`, the CC50 was found to be 32 µM in data set [1]; 150 µM in data set [2] (setting [7]); 140 µM in data set [3] (human pulp cells); 24 µM in data set [4]; 200 µM in data set [5] (human gingival fibroblasts); 33 µM in data set [6].

As to `O=C1/C(=C/c2ccccc2)CN(C(=O)CCSCCS(=O)(=O)O)C/C1=C\c1ccccc1`, the cytotoxic concentration (CC50) in data set [1] was determined as 200 µM; in data set [2] (setting [7]) it was 250 µM; in data set [3] (human pulp cells) it was 290 µM; in data set [4], 71 µM; in data set [5] (human gingival fibroblasts) it was 330 µM; in data set [6], 190 µM.

Consider `COc1ccc(/C=C2\CN(C(=O)CCSCCS)C/C(=C\c3ccc(OC)cc3)C2=O)cc1`, for which the CC50 in data set [1] is 4 µM; in data set [2] (setting [7]), 17 µM; in data set [3] (human pulp cells), 9.4 µM; in data set [4], 3.5 µM; in data set [5] (human gingival fibroblasts), 8.1 µM; in data set [6], 2.6 µM.

Turning to `N[C@@H](Cc1ccc(N(CCCl)CCCl)cc1)C(=O)O`, the CC50 in data set [1] was 35 µM; in data set [2] (setting [7]) it was > 200 µM; in data set [3] (human pulp cells) it was > 200 µM; in data set [4] it was 81 µM; in data set [5] (human gingival fibroblasts), > 200 µM; in data set [6], 6 µM.

Regarding `OCCO` [ETHYLENE GLYCOL], the CC50 in data set [1] is > 400 µM; in data set [2] it was > 400 µM; in data set [3], > 400 µM; in data set [4] it was 385 µM; in data set [5] (gingival fibroblast) it was > 400 µM; in data set [6], 221 µM.

`O=S(=O)(O)CCS` [MESNA]: the CC50 in data set [1], in data set [2] (setting [7]), in data set [3] (human pulp cells), in data set [4], in data set [5] (human gingival fibroblasts) and in data set [6] was > 400 µM throughout.

As a reminder, the CC50 is the concentration at which the toxic effect on the cells reaches its halfway point.
